From patent US20150087587A1, “Process for the Synchronization of Ovulation for Timed Breeding Without Heat Detection” (priority 2003, published 2015) come the findings set out here.

Assay type in all cases: in vivo, swine
Assay [1] deals with mature postpartum sows. As to the kind of experiment: Intravulvar injection at estrus detection with AI in mature postpartum sows (Example 2). To be noted: 50 mcg deslorelin in SAIB intravulvar at estrus detection. The method, then: Sows were assigned randomly in blocks of two to either control or to be injected intravulvar with 50 mcg of deslorelin in SAIB at the time of estrus detection for sows first detected in estrus in the a.m. and 12 hours later for those first detected in estrus in the p.m. Treated animals were bred AI upon detected estrus and again 24 hours later if still in estrus. Controls received a saline injection on first detected estrus behavior estrus detection and were bred according to the farm's normal procedures.

Assay [2] has as its system postpartum sows. Put plainly: Timed injection 96 hours post-weaning and single timed insemination without estrus detection; pregnancy, embryos and CL (Example 3). The following applies: 50 mcg deslorelin in SAIB at 96 hours post-weaning. The method, then: Approximately 170 postpartum sows were randomly divided into two equal groups comprised of controls and treated. Following weaning, the controls were detected for estrus and bred following the normal standard operating procedures for the farms on which they resided. The treated sows received a 50 mcg dose of deslorelin in SAIB at 96 hours post-weaning and were bred with a single insemination 28+/−2 hours later with no regard to estrus detection. The sows were examined for pregnancy by ultrasound at 21 days and slaughtered around 28 days post breeding, The entire reproductive tract was removed and corpora lutea and embryos were counted.

For assay [3], the system named is postpartum sows. Put plainly: Litter size and pregnancy rate after treatment in postpartum sows at three farm sites (Example 4). The following applies: regardless of estrus detection. From the text: Postpartum sows were randomly distributed into three different groups comprised of Controls, Treatment 1, and Treatment 2, with the exception of Site 3, which was divided into two groups, Control and Treatment 2. Control sows were detected for estrus following weaning, and bred following the normal standard operating procedures for the farms on which they resided. Treatment 1 sows were detected for estrus following weaning, and received a 50 mcg dose of deslorelin in the morning when standing and were bred by AI 4 hours later and again at 24+/−2 hours later. Treatment 2 sows received a 50 mcg dose of deslorelin in SAIB at 96 or 120 hours post-weaning and were bred with a single insemination 28+/−2 hours later with no regard to estrus detection. […]

In the case of `CCNC(=O)[C@@H]1CCCN1C(=O)[C@H](CCCN=C(N)N)NC(=O)[C@H](CC(C)C)NC(=O)[C@@H](Cc1c[nH]c2ccccc12)NC(=O)[C@H](Cc1ccc(O)cc1)NC(=O)[C@H](CO)NC(=O)[C@H](Cc1c[nH]c2ccccc12)NC(=O)[C@H](Cc1cnc[nH]1)NC(=O)[C@@H]1CCC(=O)N1` [Deslorelin, deslorelin], the “Pregnancy rates, Control versus Treated (in words)” value in assay [1] is “no significant difference”. In assay [2] (single insemination), the “Embryo Survival” value is listed as 64%. Moreover, the “Pregnancy Rate” value in assay [2] (single insemination 28+/-2 hours later, no estrus detection) is listed as 71%. In addition, the “Sows Pregnant” value in assay [2] (single insemination 28+/-2 hours later, 84 in group) is given as 60. In addition, the “Litter sizes (in words)” value in assay [3] is reported as “normal litter sizes”.
